In US20140044797A1, “PROSTACYCLIN AND ANALOGS THEREOF ADMINISTERED DURING SURGERY FOR PREVENTION AND TREATMENT OF CAPILLARY LEAKAGE” (Rigshospitalet, priority 2011, published 2014):

Columns and labels:
[1] = infusion in doses below 2 ng/kg/minute; cited from earlier work
[2] = in vivo; cited from earlier work
thrombomodulin = assay: Plasma biomarker ELISA after Flolan infusion: thrombomodulin; assay type: in vivo, healthy individuals; details: 4 ng/kg/min i.v. for 2 h; 8 healthy volunteers; plasma 0-24 h; effect continuing several hours after ceasing infusion
Experimental: (§1) Eight healthy volunteers were administered Flolane (Prostacyclin) intravenously at a dose of 4 ng/kg/min for 2 h. Blood samples were analyzed for plasma biomarkers indicative of endothelial cell (thrombomodulin, PAI-1) and glycocalyx (syndecan-1) activation and/or damage, cellular necrosis (histone-complexed DNA fragments, HMGB1) and anticoagulation (protein C, antithrombin, TFPI) at the following time points: Before the infusion (0 h), immediately after ceasing the infusion (2 h) and then 4 h, 5 h, 6 h, 8 h and 24 h after starting the infusion.
(§2) The concentration of the individual biomarkers in plasma was analyzed by commercially available ELISA kits according to the manufactures recommendations. Paired t-tests with p-values <0.05 were considered significant.

blood coagulation = assay: Thrombelastography (TEG) of whole blood during Flolan infusion; assay type: in vivo, healthy humans; details: Flolan 4 ng/kg/min i.v. for 2 h; samples after 60 and 120 min infusion vs baseline; 6 healthy volunteers; kaolin
Text: The TEG analyzer uses a small whole blood sample in a rotating cup and a pin suspended in the blood by a torsion wire, which is monitored for motion. To speed up the clot formation, a standardized amount of an activator of coagulation (e.g. Kaolin, tissue factor) may be added to the cup just before the pin is placed in the cup. The torque of the rotating cup is transmitted to the immersed pin only after fibrin and/or fibrin-platelet bonding has linked the cup and pin together. The strength and rate of these bonds affect the magnitude of the pin motion such that strong clots move the pin directly in phase with cup motion. Thus, the TEG technology documents the interaction of platelets with the protein coagulation cascade from the time of placing the blood in the analyzer until initial fibrin formation, clot rate strengthening and fibrin-platelet bonding via GPIIb/IIIa, through eventual clot lysis. The TEG R parameter reflects the initiation phase, reaction time, from start of coagulation until the first fibrin band is formed; the Angle (α) represents the increase in clot strength, clot kinetics, correlating with the thrombin generation. The maximal amplitude (MA) parameter reflects maximal clot strength i.e. the maximal elastic modus of the clot.
Six healthy volunteers were administered Flolan (prostacyclin analog) intravenously at a dose of 4 ng/kg/min for 2 h. Blood samples for whole blood viscoelastical assay (Thrombelastography [TEG]) and whole blood platelet aggregation (Multiplate) was obtained before infusion of Flolan, after 60 min infusion of Flolan and after 120 min infusion of Flolan.
With regard to the TEG assay this was performed as recommended by the manufacturer and 340 μl are mixed with 20 μl CaCl 0.2 M (final concentration 11.1 mM in the cup) and kaolin at 37° C. after which the haemostatic activity was recorded as shown in WO 2010/075861.

antithrombin = assay: Plasma biomarker ELISA after Flolan infusion: antithrombin; assay type: in vivo, healthy individuals; details: 4 ng/kg/min i.v. for 2 h; 8 healthy volunteers; plasma 0-24 h
Experimental: as §1, §2

PAI-1 = assay: Plasma biomarker ELISA after Flolan infusion: PAI-1; assay type: in vivo, healthy individuals; details: 4 ng/kg/min i.v. for 2 h; 8 healthy volunteers; plasma 0-24 h
Experimental: as §1, §2

HMGB1 = assay: Plasma biomarker ELISA after Flolan infusion: HMGB1; assay type: in vivo, healthy individuals; details: 4 ng/kg/min i.v. for 2 h, 8 healthy volunteers
Experimental: as §1, §2

TFPI = assay: Plasma biomarker ELISA after Flolan infusion: TFPI; assay type: in vivo, healthy individuals; details: 4 ng/kg/min i.v. for 2 h; 8 healthy volunteers; plasma 0-24 h
Experimental: as §1, §2

[3] = epoprostenol sodium compared with iloprost; cited from earlier work
Protein C = assay: Plasma biomarker ELISA after Flolan infusion: Protein C; assay type: in vivo, healthy individuals; details: 4 ng/kg/min i.v. for 2 h; 8 healthy volunteers; in the hours after ceasing the infusion
Experimental: as §1, §2

platelet aggregation = assay: Multiplate whole blood impedance aggregometry during Flolan infusion; assay type: in vivo, healthy humans; details: Flolan 4 ng/kg/min i.v. for 2 h; after 60 and 120 min infusion; any of the agonists investigated (ASPI, COL, TRAP, ADP); 6 volunteers
Text: Multiplate whole blood aggregometry is a platelet function test, (Multiplate®, Dynabyte Medical, Munich, Germany). […] The increase of impedance by the attachment of platelets onto the Multiplate sensors is transformed to arbitrary aggregation units (AU) and plotted against time. The aggregation can then be measured in AUC*min (area under the curve*min) determined by the plot of units against time. Additionally, the aggregation can also be expressed in units (U) (1 unit=10 AU*min). Multiplate thereby allows analyzing the effect of compounds on platelet aggregation. […] Blood samples for whole blood viscoelastical assay (Thrombelastography [TEG]) and whole blood platelet aggregation (Multiplate) was obtained before infusion of Flolan, after 60 min infusion of Flolan and after 120 min infusion of Flolan. Whole blood impedance aggregometry was analyzed by the Multiple Platelet function Analyzer (MultiPlate® analyzer). […]

[4] = system: histone-complexed DNA fragments; assay: Plasma biomarker ELISA after Flolan infusion: histone-complexed DNA fragments; assay type: in vivo, healthy individuals; details: 4 ng/kg/min i.v. for 2 h; 8 healthy volunteers; plasma 0-24 h
Experimental: as §1, §2

syndecan-1 = assay: Plasma biomarker ELISA after Flolan infusion: syndecan-1; assay type: in vivo, healthy individuals; details: 4 ng/kg/min i.v. for 2 h; 8 healthy volunteers; plasma 0-24 h
Experimental: as §1, §2

CCCCC[C@H](O)/C=C/[C@@H]1[C@H]2C/C(=C/CCCC(=O)O)O[C@H]2C[C@H]1O [Flolan, epoprostenol sodium]
duration of hypotensive episodes [1]: 1 to 2 h | side effects: bleeding tendency [1]: no bleeding tendency | side effects: hypotensive episodes [1]: a few self-limiting hypotensive episodes | half time [2]: 0.5 to 3 min | circulating level of thrombomodulin (thrombomodulin): marked decrease | TEG Angle vs baseline (blood coagulation): No significant difference | TEG MA vs baseline (blood coagulation): No significant difference | TEG R vs baseline (blood coagulation): No significant difference | circulating level of antithrombin (antithrombin): decreased | circulating level of PAI-1 (PAI-1): declined | HMGB1 at 5 h (HMGB1; 5 h after starting infusion, p=0.056): tendency towards a reduction | cell necrosis biomarker HMGB1 (HMGB1; plasma 0-24 h): did not influence | circulating level of TFPI (TFPI): did not induce or influence glycocalyx shedding (syndecan-1) (FIG. 6A) or affected the circulating level of TFPI | relative potency [3]: equipotent | circulating level of Protein C (Protein C): decreased | Multiplate values vs baseline (platelet aggregation): no significant difference | cell necrosis biomarker histone-complexed DNA fragments [4]: did not influence | glycocalyx shedding (syndecan-1) (syndecan-1): did not induce or influence

CCCCC[C@H](O)CC[C@@H]1[C@H]2Cc3cccc(OCC(=O)O)c3C[C@H]2C[C@H]1O [treprostinil]
half time [2]: less than 4 hours

CC#CCC(C)[C@H](O)/C=C/[C@@H]1[C@H]2c3cccc(CCCC(=O)O)c3O[C@H]2C[C@H]1O (mixture of isomers) [beraprost]
half time [2]: 35 to 40 min

CC#CCC(C)[C@H](O)/C=C/[C@@H]1[C@H]2C/C(=C/CCCC(=O)O)C[C@H]2C[C@H]1O (stereo partly shown) [iloprost]
half time [2]: 20 to 30 min | relative potency [3]: equipotent
